Assays:
Test in all cases: greenhouse post-emergence herbicidal test
APESV = format: in vivo, Apera spica-venti; set-up: key to herbicidal activity against APESV found: rating on a scale from 0 to 100
Summary of the method: (§1)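 Post-emergence greenhouse test: plants in loamy sand, sprayed at 1–15 cm height with aqueous spray liquor from 10% emulsion concentrates, kept at 10-25 °C or 20-35 °C by species. Damage scored 0–100 (100 = complete destruction), usually 20 days after treatment. Expected additive effect E from Colby: E=X+Y−(X·Y/100).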

ALOMY = format: in vivo, Alopecurus myosuroides; set-up: key to herbicidal activity against ALOMY found: rating on a scale from 0 to 100; conditions: post emergence; for herbicidal activity against ALOMY found: single active
Summary of the method: as §1

MATCH = format: in vivo, Matricaria recutita; set-up: key to herbicidal activity against MATCH found: rating on a scale from 0 to 100; conditions: for herbicidal activity against MATCH found: single active
Summary of the method: as §1

GALAP = format: in vivo, Galium aparine; conditions: Galium aparine, post-emergence, 480 h, read-out: herbicidal activity against GALAP found
Summary of the method: as §1

AMBEL = format: in vivo, Ambrosia artemisiifolia; set-up: key: rating on a scale from 0 to 100
Method: (§2) The culture containers used were plastic pots containing medium loamy sand with approximately 4.6% of humus and 69.9% sand as substrate. The seeds of the test plants were sown separately for each species.
(§3) For the post-emergence treatment, the test plants were grown to a plant height of from 1 to 15 cm, depending on the plant habit, and only then treated with the active compounds which had been suspended or emulsified in water. To this end, the test plants were either sown directly, and grown in the same containers, or they were first grown separately as seedlings and transplanted into the test containers a few days prior to treatment.
(§4) Depending on the species, the plants were kept at 10-25° C. and 20-35° C., respectively.
(§5) The test period extended over 1 to 3 weeks. During this time, the plants were tended and their response to the individual treatments was evaluated 20 days after treatment except mentioned otherwise.
(§6) Evaluation was carried out using a scale from 0 to 100. 100 means no emergence of the plants, or complete destruction of at least the above-ground parts, and 0 means no damage or normal course of growth.
(§7) The respective stated components A and B, and, if appropriate, C, were formulated as a 10% by weight strength emulsion concentrate and, with addition of the amount of solvent system, introduced into the spray liquor used for applying the active compound. In the examples, the solvent used was water.
(§8) In the examples below, using the method of S. R. Colby (1967) “Calculating synergistic and antagonistic responses of herbicide combinations”, Weeds 15, p. 22 ff., the value E, which is expected if the activity of the individual active compounds is only additive, was calculated. E=X+Y−(X·Y/100)

POLCO = format: in vivo, Polygonum convolvulus; set-up: key to herbicidal activity against POLCO found: rating on a scale from 0 to 100; conditions: for herbicidal activity against POLCO found: single active
Summary of the method: as §1

PAPRH = format: in vivo, Papaver rhoeas; set-up: key: rating on a scale from 0 to 100; conditions: B.93 alone 1.5 g/ha a.i.
Summary of the method: as §1

IPOHE = format: in vivo, Ipomoea hederacea; set-up: key to herbicidal activity against IPOHE found: rating on a scale from 0 to 100; conditions: post emergence
Summary of the method: as §1

SASKR = format: in vivo, Salsola kali; set-up: key: scale 0 to 100; conditions: 9.375 g/ha a.i.
Method: as §2, §3, §4, §5, §6, §7, §8

ERICA = format: in vivo, Conyza canadensis; set-up: key to herbicidal activity against ERICA found: rating on a scale from 0 to 100; conditions: post emergence
Summary of the method: as §1

GERDI = format: in vivo, Geranium dissectum; set-up: key to herbicidal activity against GERDI found: rating on a scale from 0 to 100; conditions: single active, post emergence
Summary of the method: as §1

VIOAR = format: in vivo, Viola arvensis; set-up: key to herbicidal activity against VIOAR found / herbicidal activity against VIOLA found: rating on a scale from 0 to 100; conditions: single active, 175 g/ha a.i., post emergence
Summary of the method: as §1

ECHCG = format: in vivo, Echinochloa crus-galli; set-up: key to herbicidal activity against ECHCG found / herbicidal activity against ECHCH found: scale 0 to 100
Summary of the method: as §1

ABUTH = format: in vivo, Abutilon theophrast; conditions: Abutilon theophrasti, post-emergence, 480 h, read-out: herbicidal activity against ABUTH found
Summary of the method: as §1

[1] = single active, 175 g/ha a.i., post emergence
[2] = Echinochloa crus-galli, post-emergence, 480 h, read-out: herbicidal activity against ECHCG found

## Cc1nn(-c2cc(NS(C)(=O)=O)c(Cl)cc2Cl)c(=O)n1C(F)F [B.93, sulfentrazone]
APESV; Apera spica-venti, post-emergence, 480 h, B.93 alone 1.5 g/ha a.i., post emergence, read-out: herbicidal activity against APESV found
  pest or weed control at 1.5 g/ha: 10%
ALOMY; Alopecurus myosuroides, post-emergence, 480 h, B.93 alone 1.5 g/ha a.i., read-out: herbicidal activity against ALOMY found
  pest or weed control at 1.5 g/ha: 0%
MATCH; Matricaria chamomilla, post-emergence, 480 h, B.93 alone 1.5 g/ha a.i., post emergence, read-out: herbicidal activity against MATCH found
  pest or weed control at 1.5 g/ha: 0%
MATCH; Matricaria chamomilla, post-emergence, 480 h, B.93 alone 3 g/ha a.i., post emergence, read-out: herbicidal activity against MATCH found
  pest or weed control at 3 g/ha: 50%
MATCH; Matricaria chamomilla, post-emergence, 480 h, B.93 alone 6 g/ha a.i., post emergence, read-out: herbicidal activity against MATCH found
  pest or weed control at 6 g/ha: 50%
GALAP; B.93 alone 1.5 g/ha a.i., post emergence
  pest or weed control at 1.5 g/ha: 45%
AMBEL; B.93 alone 1.5 g/ha a.i.
  herbicidal activity against AMBEL found: 20
AMBEL; B.93 alone 6 g/ha a.i.
  herbicidal activity against AMBEL found: 30
POLCO; Fallopia convolvulus, post-emergence, 480 h, B.93 alone 3 g/ha a.i., post emergence, read-out: herbicidal activity against POLCO found
  pest or weed control at 3 g/ha: 85%
POLCO; Fallopia convolvulus, post-emergence, 480 h, B.93 alone 6 g/ha a.i., post emergence, read-out: herbicidal activity against POLCO found
  pest or weed control at 6 g/ha: 85%
PAPRH
  herbicidal activity against PAPRH found: 70

## CS(=O)(=O)c1ccc(C(=O)C2C(=O)CCCC2=O)c(Cl)c1COCC(F)(F)F [B.106, tembotrione]
MATCH; Matricaria chamomilla, post-emergence, 480 h, post emergence, 9.375 g/ha a.i., read-out: herbicidal activity against MATCH found
  pest or weed control at 9.375 g/ha: 65%
IPOHE; Ipomoea hederacea, post-emergence, 480 h, 9.375 g/ha a.i., read-out: herbicidal activity against IPOHE found
  pest or weed control at 9.375 g/ha: 70%
SASKR
  herbicidal activity against SASKR found: 65
ERICA; Erigeron canadensis, post-emergence, 480 h, 9.375 g/ha a.i., read-out: herbicidal activity against ERICA found
  pest or weed control at 9.375 g/ha: 90%

## COCC(C)N(C(=O)CCl)c1c(C)csc1C (stereo not drawn) [DMTA]
APESV; [1]
  herbicidal activity against APESV found: 95
GERDI; 175 g/ha a.i.
  herbicidal activity against GERDI found: 30
GERDI; 350 g/ha a.i.
  herbicidal activity against GERDI found: 60
VIOAR
  herbicidal activity against VIOLA found: 0
ALOMY; 175 g/ha a.i.
  herbicidal activity against ALOMY found: 0
ALOMY; 350 g/ha a.i.
  herbicidal activity against ALOMY found: 45
MATCH; 175 g/ha a.i., post emergence
  herbicidal activity against MATCH found: 30
MATCH; 350 g/ha a.i., post emergence
  herbicidal activity against MATCH found: 30
IPOHE; single active, 350 g/ha a.i.
  herbicidal activity against IPOHE found: 25
ECHCG; [1]
  herbicidal activity against ECHCG found: 90
AMBEL; single active, 175 g/ha a.i.
  herbicidal activity against AMBEL found: 0
AMBEL; single active, 350 g/ha a.i.
  herbicidal activity against AMBEL found: 20
ERICA; single active, 175 g/ha a.i.
  herbicidal activity against ERICA found: 15
POLCO; 175 g/ha a.i., post emergence
  herbicidal activity against POLCO found: 0
POLCO; 350 g/ha a.i., post emergence
  herbicidal activity against POLCO found: 25

## COc1nc(C)nc(=NC(=O)NS(=O)(=O)c2ccccc2C(=O)O)[nH]1 [metsulfuron]
APESV; Apera spica-venti, post-emergence, 480 h, read-out: herbicidal activity against APESV found
  pest or weed control at 0.25 g/ha: 30%
ABUTH
  pest or weed control at 0.125 g/ha: 20%
  pest or weed control at 0.25 g/ha: 80%
MATCH; Matricaria chamomilla, post-emergence, 480 h, read-out: herbicidal activity against MATCH found
  pest or weed control at 0.125 g/ha: 0%
GALAP
  pest or weed control at 0.125 g/ha: 10%
ECHCG; [2]
  pest or weed control at 0.125 g/ha: 0%
  pest or weed control at 0.25 g/ha: 25%
AMBEL; metsulfuron alone 0.125 g/ha a.i.
  herbicidal activity against AMBEL found: 0
POLCO; Fallopia convolvulus, post-emergence, 480 h, read-out: herbicidal activity against POLCO found
  pest or weed control at 0.125 g/ha: 30%

Source: US10881110B2, “Herbicidal compositions comprising isoxazolo[5,4-b]pyridines” (BASF SE, priority 2014, dated 2021)
